{"source": "paper PMC3479019", "about": "“Identification and functional analysis of gene cluster involvement in biosynthesis of the cyclic lipopeptide antibiotic pelgipeptin produced by Paenibacillus elgii” (BMC Microbiology, 2012)", "experiment_in_all_cases": "amino acid adenylation, pyrophosphate release, inorganic pyrophosphatase / malachite green, […] nm", "type_in_all_cases": "biochemical", "settings_in_all_cases": "5 mM ATP, 10 mM MgCl2, 6 mM amino acid, 100 mM NaCl, 50 mM Tris-HCl pH 7.5, 25 °C", "key": {"PlpE A3": {"target": "T1, PlpE A3 (Paenibacillus elgii, UniProt I1Z6A3)", "T1 construct": "pET28a, E. coli BL21(DE3), Ni-purified, His-tag (C-terminal by primers, inferred); borders by primers plpE-A3-F/R, N-term MAAEQT, C-term ADYVA then KL-tag (translated from primers)", "T1 sequence (I1Z6A3 2324-2843)": "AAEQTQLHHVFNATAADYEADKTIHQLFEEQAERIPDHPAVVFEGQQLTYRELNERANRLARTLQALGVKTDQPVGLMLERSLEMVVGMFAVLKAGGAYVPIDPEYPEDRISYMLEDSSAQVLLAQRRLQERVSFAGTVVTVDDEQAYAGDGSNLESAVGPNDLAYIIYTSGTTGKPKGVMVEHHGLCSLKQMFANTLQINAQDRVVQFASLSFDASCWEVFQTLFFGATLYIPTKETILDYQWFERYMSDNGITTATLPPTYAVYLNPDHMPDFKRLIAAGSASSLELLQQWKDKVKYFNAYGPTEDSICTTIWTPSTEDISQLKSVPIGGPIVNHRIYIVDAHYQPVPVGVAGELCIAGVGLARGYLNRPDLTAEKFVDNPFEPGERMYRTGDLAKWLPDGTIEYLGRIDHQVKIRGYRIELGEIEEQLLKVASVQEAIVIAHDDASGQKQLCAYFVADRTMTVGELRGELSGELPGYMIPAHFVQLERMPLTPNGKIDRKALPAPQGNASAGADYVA"}, "PlpD A1": {"target": "T2, PlpD A1 (Paenibacillus elgii, UniProt I1Z6A2)", "T2 construct": "pET28a, E. coli BL21(DE3), Ni-purified, His-tag (C-terminal by primers, inferred); borders by primers plpD-A1-F/R, N-term MENILT, C-term GAEYE then LE-tag (translated from primers)", "T2 sequence (I1Z6A2 446-978)": "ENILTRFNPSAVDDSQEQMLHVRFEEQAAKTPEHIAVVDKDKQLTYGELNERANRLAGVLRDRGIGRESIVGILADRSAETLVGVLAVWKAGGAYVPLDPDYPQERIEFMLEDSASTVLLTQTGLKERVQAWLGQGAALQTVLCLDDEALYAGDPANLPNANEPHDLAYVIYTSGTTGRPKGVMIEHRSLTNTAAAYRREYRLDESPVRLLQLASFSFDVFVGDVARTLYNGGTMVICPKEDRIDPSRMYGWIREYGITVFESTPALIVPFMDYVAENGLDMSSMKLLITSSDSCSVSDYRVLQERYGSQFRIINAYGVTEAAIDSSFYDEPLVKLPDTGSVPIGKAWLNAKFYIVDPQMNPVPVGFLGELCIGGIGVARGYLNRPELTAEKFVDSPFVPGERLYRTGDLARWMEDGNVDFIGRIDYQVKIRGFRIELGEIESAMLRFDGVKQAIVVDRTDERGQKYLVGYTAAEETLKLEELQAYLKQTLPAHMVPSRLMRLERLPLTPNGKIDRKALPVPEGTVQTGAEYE"}, "PlpF A1": {"target": "T3, PlpF A1 (Paenibacillus elgii, UniProt I1Z6A4)", "T3 construct": "pET28a, E. coli BL21(DE3), Ni-purified, His-tag (N-terminal by primers, stop codon in reverse primer, inferred); borders by primers plpF-A1-F/R, N-term (AS)LSDSE, C-term TGLE (translated from primers)", "T3 sequence (I1Z6A4 entry or part of it)": "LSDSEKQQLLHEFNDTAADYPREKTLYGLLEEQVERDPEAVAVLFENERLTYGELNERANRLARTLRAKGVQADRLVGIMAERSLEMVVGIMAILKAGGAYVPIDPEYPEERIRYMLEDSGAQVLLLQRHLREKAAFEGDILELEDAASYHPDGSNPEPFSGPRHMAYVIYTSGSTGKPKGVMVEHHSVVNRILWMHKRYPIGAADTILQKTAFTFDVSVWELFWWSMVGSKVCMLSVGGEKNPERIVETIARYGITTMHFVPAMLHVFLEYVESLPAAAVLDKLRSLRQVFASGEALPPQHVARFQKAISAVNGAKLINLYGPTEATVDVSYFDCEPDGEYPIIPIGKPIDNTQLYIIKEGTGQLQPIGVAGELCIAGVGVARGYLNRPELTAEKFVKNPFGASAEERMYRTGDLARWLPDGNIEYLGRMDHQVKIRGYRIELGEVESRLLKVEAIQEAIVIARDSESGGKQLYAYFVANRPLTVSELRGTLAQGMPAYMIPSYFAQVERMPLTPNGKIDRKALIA"}}}
{"smiles": "N[C@@H](Cc1ccccc1)C(=O)O", "note": "[L-Phe]", "values": [{"measurement": "amino acid adenylation, pyrophosphate release, inorganic pyrophosphatase / malac", "setting": "PlpE A3", "value": "clearly exhibited the highest activity for L-Dab, L-Phe, and L-Ser, respectively"}]}
{"smiles": "NCC[C@H](N)C(=O)O", "note": "[L-Dab]", "values": [{"measurement": "amino acid adenylation, pyrophosphate release, inorganic pyrophosphatase / malac", "setting": "PlpD A1", "value": "PlpD A1, PlpE A3, and Plp F A1 clearly exhibited the highest activity for L-Dab"}]}
{"smiles": "N[C@@H](CO)C(=O)O", "note": "[L-Ser]", "values": [{"measurement": "amino acid adenylation, pyrophosphate release, inorganic pyrophosphatase / malac", "setting": "PlpF A1", "value": "clearly exhibited the highest activity for L-Dab, L-Phe, and L-Ser, respectively"}]}
